Results on nine molecules are retold here after patent US9938261B2, “Heterocyclic compounds and methods of use thereof” (AMBIT BIOSCIENCES CORPORATION, priority 2011, dated 2018).

One may read the Kd as the constant that tells how readily two partners part at equilibrium. A lower Kd goes with a tighter complex. Usually IC50 stands for the point on the concentration scale where inhibition reaches its midpoint.

Where a name gives a salt, the structure may show the parent alone. Read-outs that look alike come from different tables or passages of the source. A value given as a limit tells only on which side of the number the result lay.

The target of one experiment is T1, FLT3 (Homo sapiens, UniProt P36888).
T1 construct: made in house
T1 sequence (P36888 27-993): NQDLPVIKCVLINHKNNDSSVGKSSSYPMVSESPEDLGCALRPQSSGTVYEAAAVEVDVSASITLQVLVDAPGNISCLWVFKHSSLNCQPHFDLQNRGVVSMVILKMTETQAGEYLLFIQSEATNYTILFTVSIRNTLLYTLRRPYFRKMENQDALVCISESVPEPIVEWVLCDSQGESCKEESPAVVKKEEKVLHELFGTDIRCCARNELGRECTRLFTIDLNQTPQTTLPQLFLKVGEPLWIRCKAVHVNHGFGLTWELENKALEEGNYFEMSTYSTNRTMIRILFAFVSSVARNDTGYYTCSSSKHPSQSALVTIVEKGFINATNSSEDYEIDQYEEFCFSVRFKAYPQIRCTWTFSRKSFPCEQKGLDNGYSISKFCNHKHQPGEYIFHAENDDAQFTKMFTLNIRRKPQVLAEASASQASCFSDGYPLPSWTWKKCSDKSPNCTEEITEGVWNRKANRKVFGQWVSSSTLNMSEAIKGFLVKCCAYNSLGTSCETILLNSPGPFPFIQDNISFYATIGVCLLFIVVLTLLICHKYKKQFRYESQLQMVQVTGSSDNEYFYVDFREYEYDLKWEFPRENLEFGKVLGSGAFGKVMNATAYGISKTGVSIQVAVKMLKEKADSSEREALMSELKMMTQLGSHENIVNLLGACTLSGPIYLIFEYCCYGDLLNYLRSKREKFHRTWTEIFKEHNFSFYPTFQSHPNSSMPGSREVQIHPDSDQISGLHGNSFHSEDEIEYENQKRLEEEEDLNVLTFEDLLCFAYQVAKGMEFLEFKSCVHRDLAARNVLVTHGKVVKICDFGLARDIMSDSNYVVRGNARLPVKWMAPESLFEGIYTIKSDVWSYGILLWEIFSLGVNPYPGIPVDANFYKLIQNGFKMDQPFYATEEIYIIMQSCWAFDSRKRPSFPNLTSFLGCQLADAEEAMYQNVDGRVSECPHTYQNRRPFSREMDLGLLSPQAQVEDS
In words: Competition binding assay, FLT3 Kd. Put shortly: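 First, biotinylated affinity ligands were loaded onto streptavidin magnetic beads and blocked. Kinase, beads and compound were then equilibrated 1 hour at room temperature, washed, and eluted with non-biotinylated ligand. Eluted kinase was measured by qPCR, with Kd fitted from an eleven-point threefold dilution series.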

In the next experiment the target is CSF1R (Homo sapiens, UniProt P07333). As to the kind of experiment: HEK293 CSF1R phosphorylation MSD assay. The class given is cell-based. Set-up: expressed in transfected cells; host or cells: HEK293. The note with it: read-out: HEK293 pCSF1R M-CSF MSD:IC50. Put shortly:
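HEK293 cells expressing CSF1R-FKBP were pretreated 2 h at 37° C with 9 half-log concentrations of compound (0.5% DMSO final), then stimulated 5 min with 50 ng/mL human M-CSF. Lysates captured on biotin-FK506 plates; phosphotyrosine detected by MSD electrochemiluminescence. IC50 versus DMSO, averaged from duplicate plates.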

The mark [1] stands for this setting: HEK293 cells, M-CSF stimulated CSF1R phosphorylation, MSD.
The mark [2] stands for this setting: 2 h compound, human M-CSF 50 ng/mL for 5 min.

Sequence of CSF1R (P07333 20-972): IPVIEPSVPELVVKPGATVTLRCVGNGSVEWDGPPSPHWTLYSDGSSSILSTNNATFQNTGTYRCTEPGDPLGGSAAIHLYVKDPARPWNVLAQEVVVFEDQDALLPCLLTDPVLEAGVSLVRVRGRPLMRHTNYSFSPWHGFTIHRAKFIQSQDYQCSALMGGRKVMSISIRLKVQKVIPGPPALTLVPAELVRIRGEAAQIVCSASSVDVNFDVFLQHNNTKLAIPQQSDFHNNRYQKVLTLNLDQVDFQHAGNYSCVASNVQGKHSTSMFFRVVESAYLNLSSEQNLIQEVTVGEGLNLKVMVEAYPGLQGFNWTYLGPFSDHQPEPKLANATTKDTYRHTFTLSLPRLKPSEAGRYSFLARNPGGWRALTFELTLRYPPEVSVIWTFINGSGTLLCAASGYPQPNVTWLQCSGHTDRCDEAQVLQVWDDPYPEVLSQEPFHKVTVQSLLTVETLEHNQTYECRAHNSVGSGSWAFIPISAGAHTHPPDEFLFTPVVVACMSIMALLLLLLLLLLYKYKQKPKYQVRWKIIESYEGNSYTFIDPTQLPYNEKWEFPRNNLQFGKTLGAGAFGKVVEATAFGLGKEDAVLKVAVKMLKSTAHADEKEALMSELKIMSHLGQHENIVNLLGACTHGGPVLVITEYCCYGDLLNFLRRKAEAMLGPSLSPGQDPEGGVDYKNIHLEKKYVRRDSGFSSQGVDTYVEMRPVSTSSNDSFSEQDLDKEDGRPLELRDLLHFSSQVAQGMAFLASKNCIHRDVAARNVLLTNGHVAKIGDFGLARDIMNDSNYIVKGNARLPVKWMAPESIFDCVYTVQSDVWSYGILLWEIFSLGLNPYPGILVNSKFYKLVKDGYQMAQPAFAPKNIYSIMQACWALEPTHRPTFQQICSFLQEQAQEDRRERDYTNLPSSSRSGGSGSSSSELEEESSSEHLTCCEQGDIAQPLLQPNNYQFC

As to `O[C@@H]1CCCC[C@H]1Nc1nc2ccc(Cc3cnc4cc(-n5nccn5)ccn34)cc2s1` [Example 215, (1R,2R)-2-((6-((7-(2H-1,2,3-triazol-2-yl)imidazo[1,2-a]pyridin-3-yl)methyl)benzo[d]thiazol-2-yl)amino)cyclohexanol], on FLT3 (competition binding), the Kd was in the range of 1000 to 5000 nM. Also, the half-inhibitory concentration (IC50) at CSF1R (setting [1]) lay in the range of 50 to 200 nM.
`C=Cc1ccn2c(Cc3ccc4nc(N[C@@H]5CCCC[C@H]5O)sc4c3)cnc2c1` [Example 216, (1R,2R)-2-((6-((7-vinylimidazo[1,2-a]pyridin-3-yl)methyl)benzo[d]thiazol-2-yl)amino)cyclohexanol] showed a Kd at FLT3 (competition binding) of 1000 to 5000 nM. Besides, the concentration for half-maximal inhibition (IC50) at CSF1R (setting [1]) fell in the range of 50 to 200 nM.
Taken in the same sequence, the figures for `C=CCOc1ccn2c(Cc3ccc4nc(N[C@@H]5CCCC[C@H]5O)sc4c3)cnc2c1` [Example 217, (1R,2R)-2-((6-((7-(allyloxy)imidazo[1,2-a]pyridin-3-yl)methyl)benzo[d]thiazol-2-yl)amino)cyclohexanol] were 1000 to 5000 nM and 50 to 200 nM.
For `O[C@@H]1CCCC[C@H]1Nc1nc2ccc(Cc3cnc4cc(-n5ccnn5)ccn34)cc2s1` [Example 218, (1R,2R)-2-((6-((7-(1H-1,2,3-triazol-1-yl)imidazo[1,2-a]pyridin-3-yl)methyl)benzo[d]thiazol-2-yl)amino)cyclohexanol], in that order: 1000 to 5000 nM and no more than 50 nM.
For `Fc1cnc2c(c1)ncn2Cc1ccc2nc(N[C@@H]3CCCC[C@@H]3Cl)sc2c1` [Example 219, N-((1R,2S)-2-chlorocyclohexyl)-6-((6-fluoro-3H-imidazo[4,5-b]pyridin-3-yl)methyl)benzo[d]thiazol-2-amine], in that order: 1000 to 5000 nM and 50 to 200 nM.
The molecule `Nc1nccn(Cc2ccc3nc(N[C@@H]4CCCC[C@H]4O)sc3c2)c1=O` [Example 220, 3-amino-1-((2-(((1R,2R)-2-hydroxycyclohexyl)amino)benzo[d]thiazol-6-yl)methyl)pyrazin-2(1H)-one acetate salt] registered a dissociation constant Kd on FLT3 (competition binding) greater than 5000 nM. Moreover, at CSF1R (setting [1]), the IC50 was greater than 500 nM.
On to “either (1R,2R)-1-((6-((4-(1-methyl-1H-pyrazol-4-yl)-1H-imidazol-1-yl)methyl)benzo[d]thiazol-2-yl)amino)-2,3-dihydro-1H-inden-2-ol or (1R,2R)-1-((6-((5-(1-methyl-1H-pyrazol-4-yl)-1H-imidazol-1-yl)methyl)benzo[d]thiazol-2-yl)amino)-2,3-dihydro-1H-inden-2-ol [Example 83]”, for which the Kd at FLT3 is no more than 200 nM. Also, the IC50 at CSF1R (setting [2]) lay within 50 to 200 nM.
On to “either (1R,2R)-2-((6-((3H-imidazo[4,5-b]pyridin-3-yl)methyl)benzo[d]thiazol-2-yl)amino)-1-methylcyclohexanol or (1S,2R)-2-((6-((3H-imidazo[4,5-b]pyridin-3-yl)methyl)benzo[d]thiazol-2-yl)amino)-1-methylcyclohexanol [Example 60]”, for which the equilibrium dissociation constant (Kd) at FLT3 lay in the range of 1000 to 5000 nM. In addition, the IC50 on CSF1R (setting [2]) is 50 to 200 nM.
Taken in the same sequence, the figures for “either (1S,2R)-2-((6-((3H-imidazo[4,5-b]pyridin-3-yl)methyl)benzo[d]thiazol-2-yl)amino)-1-methylcyclohexanol or (1R,2R)-2-((6-((3H-imidazo[4,5-b]pyridin-3-yl)methyl)benzo[d]thiazol-2-yl)amino)-1-methylcyclohexanol [Example 59]” were 1000 to 5000 nM and 50 to 200 nM.
